A word on the IC50: it is the concentration needed to halve the response being measured.

The assay has as its target T1, plasma kallikrein (PKa) (Homo sapiens, UniProt P03952).
T1 construct: purchased R & D 2497-SE
Put plainly: Inhibitory activity against plasma kallikrein in vitro (fluorescence intensity enzyme assay, Pro-Phe-Arg-AMC substrate). The class given is biochemical. The following applies: Pro-Phe-Arg-AMC substrate. How it is done: Test of the inhibitory activities of the compounds of the present invention against plasma kallikrein (PKa), KLK1 and FXIa in vitro.
The final concentrations of enzyme protein and Pro-Phe-Arg-AMC in the reaction mixture were 10 nM and 60 µM, respectively. The starting concentration of the positive reference substance Avoralstat was 100 nM, 3-fold dilution, 10 + 0 dose. 0.05 µL of compound in 100% DMSO was delivered to a 384-well plate by an acoustic liquid delivery technique (Echo665; nanoliter range). Compound duplex test. […] IC50 values and nonlinear regression curve fitting were obtained using GraphPad Prism software.

Where [1] appears, read: plasma kallikrein enzyme assay, read-out: PKa IC50.
[2] abbreviates: PKa IC50, plasma kallikrein enzyme assay.

Read-outs that look alike come from different tables or passages of the source. Some results are limits rather than exact numbers.

T1 sequence (P03952 391-638 limits assumed): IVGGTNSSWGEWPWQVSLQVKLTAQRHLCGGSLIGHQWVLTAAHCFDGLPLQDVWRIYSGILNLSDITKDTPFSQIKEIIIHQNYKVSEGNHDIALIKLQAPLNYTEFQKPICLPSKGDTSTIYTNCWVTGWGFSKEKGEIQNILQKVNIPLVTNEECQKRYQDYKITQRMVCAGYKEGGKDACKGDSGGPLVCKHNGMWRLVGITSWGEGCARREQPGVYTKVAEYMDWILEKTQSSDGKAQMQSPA
T1 sequence (P03952 20-390 partner limits assumed): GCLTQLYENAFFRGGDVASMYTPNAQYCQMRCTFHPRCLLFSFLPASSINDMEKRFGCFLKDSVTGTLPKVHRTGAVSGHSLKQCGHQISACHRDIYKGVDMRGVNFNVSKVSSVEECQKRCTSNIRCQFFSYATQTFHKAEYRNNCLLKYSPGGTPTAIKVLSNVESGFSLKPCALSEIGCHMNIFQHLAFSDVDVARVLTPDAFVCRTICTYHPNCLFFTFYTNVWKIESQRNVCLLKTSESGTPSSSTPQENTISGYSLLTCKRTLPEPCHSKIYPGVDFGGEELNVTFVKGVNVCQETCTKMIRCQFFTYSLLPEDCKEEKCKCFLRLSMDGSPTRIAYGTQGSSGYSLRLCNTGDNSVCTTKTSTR

Consider `N#Cc1cc(N2CC3C(C2)C3(F)F)ccc1Cn1cnc(C(=O)NC2CCc3cc(N)ncc32)n1` (single isomer, unassigned) [Compound 53], for which the IC50 under setting [1] is more than 100 nM.

On to `Cc1cc(N)nc(C)c1CNC(=O)c1nnc(Cc2cn3cc(C4CC4)ccc3n2)o1` [Compound 17], for which the IC50 under setting [1] was 36.2 nM.

As for `COCc1nn(Cc2cn3cc(C4CC4)ccc3n2)cc1C(=O)NCc1c(C)cc(N)nc1C` [Compound 21], under setting [1], the IC50 came out at 2.98 nM.

As for `Cc1nc(N)nc(C)c1CNC(=O)c1ncn(Cc2ccc(Cn3cc(F)ccc3=O)cc2)n1` [Compound 26], the half-maximal inhibitory concentration (IC50) under setting [1] was determined as 699 nM.

With `Cc1cc(N)nc(C)c1CNC(=O)c1nc(Cc2ccc(Cn3ccccc3=O)cc2)nn1C` [Compound 29], under setting [1], the IC50 is more than 1000 nM.

On to `Nc1nnc(CNC(=O)c2cnn(Cc3ccc(Cn4ccccc4=O)cc3)c2)s1` [Compound 30], for which the IC50 under setting [1] is more than 1000 nM.

Consider `Cc1nc(N)ncc1CNC(=O)c1ncn(Cc2ccc(Cn3cc(F)ccc3=O)cc2)n1` [Compound 31], for which the half-inhibitory concentration (IC50) under setting [1] was more than 1000 nM.

Take `COc1ccnc(CNC(=O)c2ncn(Cc3ccc(Cn4cc(F)ccc4=O)cc3)n2)c1F` [Compound 32]: the IC50 under setting [1] is more than 100 nM.

Regarding `Nc1ncc(CNC(=O)c2cnn(Cc3ccc(Cn4ccccc4=O)cc3)c2)s1` [Compound 36], under setting [1], the IC50 is 523 nM.

Consider `Nc1cc2c(cn1)[C@H](NC(=O)c1ncn(Cc3cn4cc(C5CC5)ccc4n3)n1)CC2` [Compound 45], for which the concentration for half-maximal inhibition (IC50) under setting [1] was more than 100 nM.

For the compound `Nc1cc2c(cn1)[C@@H](NC(=O)c1ncn(Cc3cn4cc(C5CC5)ccc4n3)n1)CC2` [Compound 46], the IC50 under setting [1] was more than 100 nM.

Turning to `Nc1cc2c(cn1)C(NC(=O)c1ncn(Cc3c(F)c(F)c(Cn4ccccc4=O)c(F)c3F)n1)CC2` (centres unmarked) [Compound 51], the IC50 under setting [1] is more than 100 nM.

As to `Cn1cnc2c1CC[C@H]2NC(=O)c1nn(Cc2ccc(Cn3ccccc3=O)cc2)cc1C(F)F` [Compound 58], the IC50 under setting [1] was determined as 17.4 nM.

In the case of `COCc1cn(Cc2ccc(Cn3ccccc3=O)cc2)nc1C(=O)N[C@@H]1CCc2c1ncn2C` [Compound 59], the IC50 under setting [1] is more than 100 nM.

Consider `Cc1cc(N)nc(C)c1CNC(=O)c1ncn(Cc2ccc(-n3ccccc3=O)cc2)n1` [Compound 63], for which the IC50 under setting [1] was 16.7 nM.

With `COCc1nn(Cc2ccc(CN3CCCCC3=O)cc2)cc1C(=O)NCc1nccc(OC)c1F` [Compound 77], the half-maximal inhibitory concentration (IC50) under setting [1] came to 62.9 nM.

As to `Cc1cc(N)nc(C)c1CNC(=O)c1ncn(Cc2ccc(CN3CCCCC3=O)cc2)n1` [Compound 78], the IC50 under setting [1] was 3.72 nM.

Regarding `Cn1cnc2c1CC[C@H]2NC(=O)c1ncn(Cc2ccc(CN3CCCCC3=O)cc2)n1` [Compound 79], under setting [1], the IC50 is more than 100 nM.

For the compound `C#Cc1nn(Cc2ccc(Cn3ccccc3=O)cc2)cc1C(=O)NCc1c(C)cc(N)nc1C` [Compound 81], under setting [1], the IC50 worked out at 77 nM.

`Nc1cc2c(cn1)[C@@H](NC(=O)c1ncn(Cc3ccc(Cn4ccccc4=O)cc3)n1)CO2` [Compound 82]: under setting [1], the IC50 was found to be 26.6 nM.

As for `Cc1cc(N)nc(C)c1CNC(=O)c1nc(Cc2ccc(Cn3ccccc3=O)cc2)ns1` [Compound 84], under setting [1], the IC50 is 64.7 nM.

Consider `C#Cc1nn(Cc2ccc(Cn3ccccc3=O)cc2)cc1C(=O)NCc1nccc(OC)c1F` [Compound 85], for which, under setting [1], the 50% inhibitory concentration (IC50) was determined as 58.7 nM.

Consider `COCc1nn(Cc2ccc(N3CC4C(C3)C4(F)F)cc2C#N)cc1C(=O)NCc1cc2cnccc2[nH]1` (centres unmarked) [Compound 86], for which, under setting [1], the IC50 came to 21.2 nM.

On to `COc1ccnc(CNC(=O)c2cc(Cc3ccc(Cn4ccccc4=O)cc3)cn2C)c1F` [Compound 88], for which the IC50 under setting [1] amounted to 20.1 nM.

As for `COCc1nn(Cc2ccc(N3CCOCC3=O)cc2)cc1C(=O)NCc1nccc(OC)c1F` [Compound 89], under setting [1], the concentration for half-maximal inhibition (IC50) is more than 100 nM.

Regarding `COc1ccnc(CNC(=O)c2cn(Cc3ccc(Cn4ccccc4=O)cc3)nc2C(F)(F)F)c1F` [Compound 90], the IC50 under setting [1] is 3.09 nM.

For the compound `COCc1nn(Cc2ccc(CC3CC3)cc2)cc1C(=O)NCc1nccc(OC)c1F` [Compound 91, 1-(4-(cyclopropylmethyl)benzyl)-N-((3-fluoro-4-methoxypyridin-2-yl)methyl)-3-(methoxymethyl)-1H-pyrazole-4-carboxamide], under setting [1], the IC50 is more than 100 nM.

Consider `COCc1nn(Cc2ccc(-n3ccccc3=O)cc2)cc1C(=O)NCc1nccc(OC)c1F` [Compound 92], for which the IC50 under setting [1] is more than 100 nM.

As to `COCc1nn(Cc2ccc(-n3ccccc3=O)cc2)cc1C(=O)NC1CCc2c1ncn2C` (centres unmarked) [Compound 96], the IC50 under setting [1] is more than 100 nM.

With `COCc1nn(Cc2ccc(-n3ccccc3=O)cc2)cc1C(=O)NCc1cc2ccncc2[nH]1` [Compound 97], the IC50 under setting [1] came to 503 nM.

As to `COCc1nn(Cc2ccc(Cn3ccc4ncccc43)cc2)cc1C(=O)NCc1nccc(OC)c1F` [Compound 98], the IC50 under setting [1] amounted to 245 nM.

Turning to `Cc1cc(Cl)nc(C)c1CNC(=O)c1ncn(Cc2ccc(Cn3ccccc3=O)cc2)n1` [Compound 100], under setting [1], the IC50 is more than 100 nM.

As for `COCc1nn(Cc2ccc(CN3CCCCCC3)cc2)cc1C(=O)NCc1nccc(OC)c1F` [Compound 102], the IC50 under setting [1] was more than 100 nM.

Consider `COCc1nn(Cc2ccc(CN3CC(F)(F)C3)cc2)cc1C(=O)NCc1nccc(OC)c1F` [Compound 103], for which the IC50 under setting [1] was more than 100 nM.

Regarding `COCc1nn(Cc2ccc(N3CC4C(C3)C4(F)F)cc2C#N)cc1C(=O)NCc1cn2c(n1)CNCC2` (centres unmarked) [Compound 104], the half-inhibitory concentration (IC50) under setting [1] was more than 100 nM.

As to `COCc1nn(Cc2ccc(-n3ccccc3=O)cc2)cc1C(=O)NCc1nc2c(s1)CNCC2` [Compound 107], the IC50 under setting [1] is more than 100 nM.

For `COCc1nn(Cc2ccc(Cn3ccccc3=O)cc2)cc1C(=O)NCc1cc2cnccc2[nH]1` [Compound 108], under setting [1], the half-inhibitory concentration (IC50) was 36.8 nM.

Turning to `COCc1nn(Cc2ccc(N3CCOCC3=O)cc2)cc1C(=O)NCc1cn2c(n1)CNCC2` [Compound 112], under setting [1], the IC50 was more than 100 nM.

Regarding `COCc1nn(Cc2ccc(Cn3ccccc3=O)cc2)cc1C(=O)NCc1c(C)cncc1C` [Compound 114], the IC50 under setting [1] is more than 100 nM.

Regarding `O=C(NCc1cc2cnccc2[nH]1)c1cn(Cc2ccc(Oc3ccccc3)cc2)nc1C(F)(F)F` [Compound 115], the IC50 under setting [1] was more than 100 nM.

Turning to `COCc1nn(Cc2ccc(Oc3ccccc3)cc2)cc1C(=O)NCc1nccc(OC)c1F` [Compound 117], the IC50 under setting [1] is more than 1000 nM.

On to `COCc1nn(Cc2ccc(Cn3ccccc3=O)cc2)cc1C(=O)NCc1cn2ccc(Cl)c(F)c2n1` [Compound 120], for which the IC50 under setting [1] was more than 1000 nM.

On to `O=C(NCc1cc2cnccc2[nH]1)c1nc(Cc2ccc(Cn3ccccc3=O)cc2)ns1` [Compound 122], for which, under setting [1], the 50% inhibitory concentration (IC50) is 124 nM.

Regarding `O=C(NCc1cc2cnccc2[nH]1)c1cn(Cc2ccc(Cn3ccccc3=O)cc2)nc1C(F)(F)F` [Compound 123], under setting [1], the 50% inhibitory concentration (IC50) stood at 29.5 nM.

For the compound `COc1ccnc(CNC(=O)c2cn(Cc3ccc(CN4CC(F)(F)C4)cc3)nc2C(F)(F)F)c1F` [Compound 124], under setting [1], the IC50 is more than 1000 nM.

With `COCc1nn(Cc2ccc(Oc3ccccc3)cc2)cc1C(=O)NCc1ccc2nccn2c1` [Compound 125], the IC50 under setting [1] is 329 nM.

Take `COCc1nn(Cc2ccc(Cn3ccccc3=O)cc2)cc1C(=O)NCc1ccc2nccn2c1` [Compound 126]: the IC50 under setting [1] came to 229 nM.

For `COCc1nn(Cc2ccc(N3CC4C(C3)C4(F)F)cc2C#N)cc1C(=O)NCc1nc2c(s1)CNCC2` (centres unmarked) [Compound 129], the IC50 under setting [1] came out at 406 nM.

For `CCn1cnc2c1CC[C@@H]2NC(=O)c1cn(Cc2ccc(Cn3ccccc3=O)cc2)nc1COC` [Compound 131], the IC50 under setting [1] worked out at 27.9 nM.

In turn, `COCc1nn(Cc2ccc(Cn3ccccc3=O)cc2)cc1C(=O)NCc1nccc(SC)c1F` [Compound 132] had an IC50 under setting [2] of 7.29 nM.

Consider `N=C(N)c1ccc(CNC(=O)c2cn(Cc3ccc(Oc4ccccc4)cc3)nc2C(F)(F)F)cc1` [Compound 134], for which the IC50 under setting [1] is 4.47 nM.

For `COCc1nn(Cc2ccc(Cn3ccccc3=O)cc2)cc1C(=O)NCc1cc2ccncc2n1C` [Compound 135], the IC50 under setting [1] stood at 131 nM.

`COCc1nn(Cc2ccc(Cn3ccccc3=O)cc2)cc1C(=O)NCc1[nH]c2cnccc2c1Cl` [Compound 136]: the IC50 under setting [1] turned out to be 36.2 nM.

On to `COCc1nn(Cc2ccc(CN3C(=O)C4(CC4)c4ccc(F)cc43)cc2)cc1C(=O)NCc1nccc(OC)c1F` [Compound 138], for which the IC50 under setting [1] was more than 1000 nM.

Turning to `COCc1nn(Cc2ccc(Cn3ccccc3=O)cc2)cc1C(=O)NCc1cc2cnccc2n1C` [Compound 139], the IC50 under setting [1] was found to be 12.6 nM.

Regarding `COCc1nn(Cc2ccc(Cn3c(=O)sc4ccccc43)cc2)cc1C(=O)NCc1nccc(OC)c1F` [Compound 140], the IC50 under setting [1] was found to be 78 nM.

Take `COCc1nn(Cc2ccc(Oc3ccccc3)cc2)cc1C(=O)NCc1ccn2ccnc2c1` [Compound 141]: under setting [1], the IC50 is more than 1000 nM.

With `COCc1nn(Cc2ccc(Cn3ccccc3=O)cc2)cc1C(=O)NCc1ncc2c(n1)CNC2` [Compound 144], inhibition under setting [2] was half-maximal at 25.9 nM (IC50).

On to `COCc1nn(Cc2ccc(-n3ccccc3=O)cc2)cc1C(=O)NCc1cn2c(n1)CNCC2` [Compound 145], for which the IC50 under setting [1] was more than 1000 nM.

For the compound `Cc1[nH]c(C(=O)NCc2cc3cnccc3[nH]2)c(C)c1Cc1ccc(Cn2ccccc2=O)cc1` [Compound 148], under setting [1], the IC50 stood at 347 nM.

Take `COc1ccnc(CNC(=O)c2[nH]cc(Cc3ccc(Cn4ccccc4=O)cc3)c2C)c1F` [Compound 151]: the IC50 under setting [1] was 544 nM.

Regarding `COCc1nn(Cc2ccc(Cn3ccccc3=O)cc2)cc1C(=O)NCc1nc2c(s1)CNCC2` [Compound 152], the 50% inhibitory concentration (IC50) under setting [1] stood at 594 nM.

As to `COCc1nn(Cc2ccc(Cn3ccccc3=O)cc2)cc1C(=O)NCc1c(Cl)c2ccncc2n1C` [Compound 154], under setting [1], the half-inhibitory concentration (IC50) amounted to 68.8 nM.

As for `O=C(NCc1ncc2c(n1)CNC2)c1cn(Cc2ccc(Cn3ccccc3=O)cc2)nc1C(F)(F)F` [Compound 156], under setting [2], the IC50 was found to be 669 nM.

For the compound `COCc1nn(Cc2ccc(Cn3c(=O)ccc4ccccc43)cc2)cc1C(=O)NCc1nccc(OC)c1F` [Compound 159], the IC50 under setting [1] is 93.8 nM.

The values above are taken from patent publication EP4737450A1 (Longwood Pharmaceuticals (Hangzhou) Co., Ltd, priority 2023, dated 2025).
